From US10085986B2, “Pyrimidinone compounds and their use” (Takeda Pharmaceutical Company Limited, priority 2011, dated 2018)

Molecular target: Human DAAO Enzyme (Homo sapiens (Human), UniProt P14920)
Test: In vitro DAAO enzyme assay (Amplex Red detection of H2O2 from D-Serine)
Format: biochemical
Details: inhibition of DAAO activity in the presence of 10 mM D-Serine; 60 minutes at 25° C.
Experimental: The functional activity of compounds inhibiting the DAAO enzyme was determined by utilizing the co-product of the catalysis of D-Serine, H2O2 which can be quantitatively measured using the Amplex Red (Invitrogen) detection. Amplex® Red reagent is a colorless substrate that reacts with hydrogen peroxide (H2O2) with a 1:1 stoichiometry in the presence of […] to produce highly fluorescent resorufin (excitationemission maxima=570/585 nm). The changes in fluorescence were monitored by a fluorescence plate reader, Envision (Perkin Elmer) and increases in DAAO activity were readily detected upon addition of D-Serine and suppression of this response observed with the application of test compounds.
The Km of D-Serine was measured for each enzyme batch to maintain consistency; this Km was used in subsequent assays.
On the day of the assay compounds were serially diluted in DMSO before being diluted 1:20 with assay buffer (20 mM Tris ph 7.4). A 5 μl portion of assay buffer was added to the wells of a 384 clear base black walled plate (Corning), 5 μl of diluted compound was then added via automated plate to plate transfer using the Bravo liquid handler (Agilent technologies) followed by 5 μl of human DAAO enzyme and then 5 μl D-Serine 50 mM was added to all but the negative control wells (final concentration of 10 mM). Finally 5 μl Amplex red reagent (Invitrogen) was added to all wells as per manufacturer's protocol. The plate was incubated for 60 minutes in the dark at 25° C. and the fluorescence in each well was measured in the Envision plate reader.
The IC50 values for compounds were determined from ten point half log scale dose-response studies and represent the concentration of compound required to […] 50% inhibition of DAAO activity in the presence of 10 mM D-Serine. Concentration response curves were generated using the average of duplicate wells for each data point and analyzed using nonlinear regression and four parameter curve fit.

Sequence of Human DAAO Enzyme (P14920 whole entry): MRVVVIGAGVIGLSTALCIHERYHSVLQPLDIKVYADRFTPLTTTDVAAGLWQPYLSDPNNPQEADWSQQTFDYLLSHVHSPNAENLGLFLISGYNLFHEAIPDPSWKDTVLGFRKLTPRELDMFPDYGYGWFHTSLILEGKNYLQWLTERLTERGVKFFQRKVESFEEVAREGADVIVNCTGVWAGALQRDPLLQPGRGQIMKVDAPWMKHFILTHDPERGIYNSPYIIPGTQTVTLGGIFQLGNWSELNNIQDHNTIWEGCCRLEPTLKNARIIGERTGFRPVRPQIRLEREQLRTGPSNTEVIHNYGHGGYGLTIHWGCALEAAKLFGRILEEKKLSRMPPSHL

Row | IC50 [nM] | Structure (SMILES)
1 | 150 | O=c1[nH]c(SCc2cc(F)cc(Cl)c2)ncc1O [Example 11, 2-[(3-Chloro-5-fluorobenzyl)sulfanyl]-5-hydroxypyrimidin-4(3H)-one]
2 | 470 | O=c1[nH]c(SCc2cccnc2)ncc1O [Example 20, 5-Hydroxy-2-(pyridin-3-ylmethylthio)pyrimidin-4(3H)-one]
3 | 740 | O=c1[nH]c(SCc2ccc3nccn3c2)ncc1O [Example 26, 5-Hydroxy-2-[(imidazo[1,2-a]pyridin-6-ylmethyl)sulfanyl]-pyrimidin-4(3H)-one]
4 | 2800 | O=c1[nH]c(CSc2ccccc2)ncc1O [Example 30, 5-Hydroxy-2-[(phenylsulfanyl)methyl]pyrimidin-4(3H)-one]
5 | 190 | O=c1[nH]c(SCc2cccc(OC(F)F)c2)ncc1O [Example 18, 2-(3-(Difluoromethoxy)benzylthio)-5-hydroxypyrimidin-4(3H)-one]
6 | 150 | O=c1[nH]c(SCc2cccc(C(F)(F)F)c2)ncc1O [Example 10, 5-Hydroxy-2-{[3-(trifluoromethyl)benzyl]sulfanyl}pyrimidin-4(3H)-one]
7 | 170 | O=c1[nH]c(SCc2cccc(F)c2)ncc1O [Example 6, 2-[(3-Fluorobenzyl)sulfanyl]-5-hydroxypyrimidin-4(3H)-one]
8 | 3200 | O=c1[nH]c(COc2ccccc2)ncc1O [Example 31, 5-Hydroxy-2-(phenoxymethyl)pyrimidin-4(3H)-one]
9 | 120 | O=c1[nH]c(SCc2ccc3ccccc3c2)ncc1O [Example 5, 5-Hydroxy-2-[(naphthalen-2-ylmethyl)sulfanyl]pyrimidin-4(3H)-one]
10 | 2700 | O=c1[nH]c(SCc2ccccc2)nc(C(F)(F)F)c1O [Example 34, 2-(Benzylsulfanyl)-5-hydroxy-6-(trifluoromethyl)pyrimidin-4(3H)-one]
11 | 160 | COc1cccc(CSc2ncc(O)c(=O)[nH]2)c1 [Example 9, 5-Hydroxy-2-[(3-methoxybenzyl)sulfanyl]pyrimidin-4(3H)-one]
12 | 1200 | O=c1[nH]c(CCc2ccccc2)ncc1O [Example 33, 5-Hydroxy-2-(2-phenylethyl)pyrimidin-4(3H)-one]
13 | 230 | O=c1[nH]c(SCc2ccccc2)ncc1O [Example 2, 2-(Benzylsulfanyl)-5-hydroxypyrimidin-4(3H)-one]
14 | 120 | O=c1[nH]c(SCc2cccc(Cl)c2)ncc1O [Example 1, 2-(3-Chlorobenzylthio)-5-hydroxypyrimidin-4(3H)-one]
15 | 500 | Cc1nc(-c2cccc(CSc3ncc(O)c(=O)[nH]3)c2)no1 [Example 12, 5-Hydroxy-2-{[3-(5-methyl-1,2,4-oxadiazol-3-yl)benzyl]-sulfanyl}-pyrimidin-4(3H)-one]
16 | 1600 | Cc1cc(CSc2ncc(O)c(=O)[nH]2)n(C)n1 [Example 21, 2-((1,3-Dimethyl-1H-pyrazol-5-yl)methylthio)-5-hydroxypyrimidin-4(3H)-one]
17 | 1200 | CC(Sc1ncc(O)c(=O)[nH]1)c1ccccc1 (stereo not shown) [Example 14, 5-Hydroxy-2-[(1-phenylethyl)sulfanyl]pyrimidin-4(3H)-one]
18 | 220 | O=c1[nH]c(SCc2ccc(Cl)cc2)ncc1O [Example 4, 2-[(4-Chlorobenzyl)sulfanyl]-5-hydroxypyrimidin-4(3H)-one]
19 | 540 | O=c1[nH]c(SCc2cccc3c2OCCO3)ncc1O [Example 16, 2-[(2,3-Dihydro-1,4-benzodioxin-5-ylmethyl)sulfanyl]-5-hydroxypyrimidin-4(3H)-one]
